This is an account of results in the supplement of paper PMC11368000.

Each structure is given as a SMILES string.

The first assay deals with 1392 (donor line of iPSC-derived cardiomyocytes). The assay is described as follows: POD (EC10) for decrease in total cell number (cytotoxicity) vs vehicle; higher = less potent (higher point of departure). The following applies: exposure time: 90 min. As for the experimental part:
(§1)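 Human iPSC-derived cardiomyocytes from 16 donors were exposed for 90 min at 37 °C to each PFAS at 0.1, 1, 10 and 100 µM in 0.5% DMSO, 384-well plates. Kinetic Ca2+ flux (FLIPR) and Hoechst nuclei counts were normalised to vehicle wells and fitted with a hierarchical Bayesian Hill model to give donor-specific PODs: EC05 for beat-rate increase or decrease and for decay-to-rise ratio increase (QT proxy), EC95 for peak-frequency loss (asystole), EC10 for total cell number loss. 0.03 µM is the lower bound.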
Turning to `O=C(O)CCC(F)(F)C(F)(F)C(F)(F)C(F)(F)C(F)(F)F` [2H,2H,3H,3H-Perfluorooctanoic_acid], the POD vs vehicle was more than 100 µM.
Regarding `O=C(O)C=C(C(F)(F)F)C(F)(F)F` [3,3-Bis(trifluoromethyl)-2-propenoic_acid], the POD vs vehicle was more than 100 µM.
Same read-out and setting: with `O=C(O)C=CC(F)(C(F)(F)F)C(F)(F)F` [3-(Perfluoroisopropyl)-2-propenoic_acid] the figure was more than 100 µM; with `O=C(O)CCC(F)(F)C(F)(F)C(F)(F)F` [3:3 Fluorotelomer carboxylic acid], more than 100 µM.
As to `O=C(CC(=O)C(F)(F)C(F)(F)F)C(F)(F)F` [3H,3H-Perfluoro-2,4-hexanedione], the POD vs vehicle was found to be 93.5 µM.
The same measure, in the same setting: the same measure for `O=S(=O)(O)CCC(F)(F)C(F)(F)C(F)(F)C(F)(F)F` [4:2 Fluorotelomer sulfonic acid]: more than 100 µM; for `OCC(F)(F)C(F)(F)C(F)(F)F` [Heptafluorobutanol]: more than 100 µM.
Same read-out and setting: with `OCC(F)(F)C(F)(F)C(F)(F)CO` [Hexafluoroamylene_glycol] the figure was more than 100 µM.
Still for that read-out and setting: the same measure for `NC(=O)C(F)(F)C(F)(F)C(F)(F)C(F)(F)F` [Nonafluoropentanamide]: more than 100 µM; for `O=C(O)C(F)(F)OC(F)(F)C(F)(F)OC(F)(F)F` [Perfluoro-3,6-dioxaheptanoic_acid]: more than 100 µM.
Take `O=C(O)C(F)(F)OC(F)(F)C(F)(F)OC(F)(F)C(=O)O` [Perfluoro-3,6-dioxaoctane-1,8-dioic_acid]: the POD vs vehicle was more than 100 µM.
On the same count and under the same terms, with `O=C(O)C(F)(F)C(F)(F)C(F)(F)OC(F)(C(F)(F)F)C(F)(F)F` [Perfluoro-4-isopropoxybutanoic_acid] the figure was more than 100 µM.
Regarding `O=S(=O)(O)C(F)(F)C(F)(F)C(F)(F)C(F)(F)F` [Perfluorobutanesulfonic_acid], the POD vs vehicle is more than 100 µM.
On the same count and under the same terms, the same measure for `O=C(O)C(F)(F)C(F)(F)C(F)(F)C(F)(F)C(F)(F)C(F)(F)C(F)(F)C(F)(F)F` [Perfluorononanoic_acid]: more than 100 µM; for `O=S(=O)([O-])C(F)(F)C(F)(F)C(F)(F)C(F)(F)F.[K+]` [Potassium_perfluorobutanesulfonate]: more than 100 µM.

A further assay deals with 30145 (donor line of iPSC-derived cardiomyocytes). The assay is described as above. To be noted: exposure time: 90 min. As for the experimental part:
as §1
Regarding `NC(=O)C(F)(F)C(F)(F)C(F)(F)C(F)F`, the POD vs vehicle is more than 100 µM.
Still for that read-out and setting: the same measure for `OCC(O)CC(F)(F)C(F)(F)C(F)(F)C(F)(F)C(F)(F)C(F)(F)C(F)(F)C(F)(F)F` (stereo unspecified) [1-(Perfluorofluorooctyl)propane-2,3-diol]: more than 100 µM.
Same read-out and setting: the same measure for `CC(O)C(F)(F)C(F)(F)F` (stereo unspecified) [1-Pentafluoroethylethanol]: more than 100 µM; for `O=C(O)C(F)(F)C(F)(F)C(F)F` [2,2,3,3,4,4-Hexafluorobutanoic_acid]: more than 100 µM; for `NC(O)(C(F)(F)F)C(F)(F)F` [2-Aminohexafluoropropan-2-ol]: more than 100 µM.
The same measure, in the same setting: with `O=C(O)CCC(F)(F)C(F)(F)C(F)(F)C(F)(F)C(F)(F)F` [2H,2H,3H,3H-Perfluorooctanoic_acid] the figure was more than 100 µM.
In turn, `O=C(O)C=C(C(F)(F)F)C(F)(F)F` [3,3-Bis(trifluoromethyl)-2-propenoic_acid] gave a POD vs vehicle of more than 100 µM.
As for `O=C(O)C=CC(F)(C(F)(F)F)C(F)(F)F` [3-(Perfluoroisopropyl)-2-propenoic_acid], the POD vs vehicle is more than 100 µM.
In turn, `O=C(O)CCC(F)(F)C(F)(F)C(F)(F)F` [3:3 Fluorotelomer carboxylic acid] had a POD vs vehicle of more than 100 µM.
Same read-out and setting: the same measure for `O=C(CC(=O)C(F)(F)C(F)(F)F)C(F)(F)F` [3H,3H-Perfluoro-2,4-hexanedione]: more than 100 µM.
Same read-out and setting: with `O=S(=O)(O)CCC(F)(F)C(F)(F)C(F)(F)C(F)(F)F` [4:2 Fluorotelomer sulfonic acid] the figure was more than 100 µM.
Still for that read-out and setting: with `OCC(F)(F)C(F)(F)C(F)(F)F` [Heptafluorobutanol] the figure was more than 100 µM; with `OCC(F)(F)C(F)(F)C(F)(F)CO` [Hexafluoroamylene_glycol], more than 100 µM.
The compound `NC(=O)C(F)(F)C(F)(F)C(F)(F)C(F)(F)F` [Nonafluoropentanamide] yielded a POD vs vehicle of more than 100 µM.
The same measure, in the same setting: the same measure for `O=C(O)C(F)(F)OC(F)(F)C(F)(F)OC(F)(F)F` [Perfluoro-3,6-dioxaheptanoic_acid]: more than 100 µM; for `O=C(O)C(F)(F)OC(F)(F)C(F)(F)OC(F)(F)C(=O)O` [Perfluoro-3,6-dioxaoctane-1,8-dioic_acid]: more than 100 µM.
Same read-out and setting: with `O=C(O)C(F)(F)C(F)(F)C(F)(F)OC(F)(C(F)(F)F)C(F)(F)F` [Perfluoro-4-isopropoxybutanoic_acid] the figure was more than 100 µM; with `O=S(=O)(O)C(F)(F)C(F)(F)C(F)(F)C(F)(F)F` [Perfluorobutanesulfonic_acid], more than 100 µM; with `O=C(O)C(F)(F)C(F)(F)C(F)(F)C(F)(F)C(F)(F)C(F)(F)C(F)(F)C(F)(F)F` [Perfluorononanoic_acid], more than 100 µM.
On the same count and under the same terms, the same measure for `O=S(=O)([O-])C(F)(F)C(F)(F)C(F)(F)C(F)(F)F.[K+]` [Potassium_perfluorobutanesulfonate]: more than 100 µM.

A further assay deals with 20032 (donor line of iPSC-derived cardiomyocytes). The assay is described as above. To be noted: exposure time: 90 min. The procedure: as §1
Turning to `NC(=O)C(F)(F)C(F)(F)C(F)(F)C(F)F`, the POD vs vehicle was more than 100 µM.
`OCC(O)CC(F)(F)C(F)(F)C(F)(F)C(F)(F)C(F)(F)C(F)(F)C(F)(F)C(F)(F)F` (stereo unspecified) [1-(Perfluorofluorooctyl)propane-2,3-diol]: the POD vs vehicle is more than 100 µM.
The same measure, in the same setting: with `CC(O)C(F)(F)C(F)(F)F` (stereo unspecified) [1-Pentafluoroethylethanol] the figure was more than 100 µM; with `O=C(O)C(F)(F)C(F)(F)C(F)F` [2,2,3,3,4,4-Hexafluorobutanoic_acid], more than 100 µM; with `NC(O)(C(F)(F)F)C(F)(F)F` [2-Aminohexafluoropropan-2-ol], more than 100 µM.
Same read-out and setting: the same measure for `O=C(O)CCC(F)(F)C(F)(F)C(F)(F)C(F)(F)C(F)(F)F` [2H,2H,3H,3H-Perfluorooctanoic_acid]: more than 100 µM; for `O=C(O)C=C(C(F)(F)F)C(F)(F)F` [3,3-Bis(trifluoromethyl)-2-propenoic_acid]: more than 100 µM; for `O=C(O)C=CC(F)(C(F)(F)F)C(F)(F)F` [3-(Perfluoroisopropyl)-2-propenoic_acid]: more than 100 µM.
Still for that read-out and setting: the same measure for `O=C(O)CCC(F)(F)C(F)(F)C(F)(F)F` [3:3 Fluorotelomer carboxylic acid]: more than 100 µM.
`O=C(CC(=O)C(F)(F)C(F)(F)F)C(F)(F)F` [3H,3H-Perfluoro-2,4-hexanedione] returned a POD vs vehicle of more than 100 µM.
The compound `O=S(=O)(O)CCC(F)(F)C(F)(F)C(F)(F)C(F)(F)F` [4:2 Fluorotelomer sulfonic acid] yielded a POD vs vehicle of more than 100 µM.
